Values of other authors in patent US20220218582A1, “METHOD FOR DYEING KERATINOUS MATERIAL, COMPRISING THE USE OF AN ORGANOSILICON COMPOUND, A CHROMOPHORIC COMPOUND, A MODIFIED FATTY ACID ESTER AND A SEALING REAGENT I” (Henkel AG & Co. KGaA, priority 2019, published 2022).

Conditions: 25° C.

solubility in water (in words) | Compound | solubility in water
 | mixture of the sodium salts of mono- and disulfonic acids of 2-(2-quinolyl)-1H-indene-1,3(2H)-dione [Acid Yellow 3] | 20 mg/mL
highly soluble | O=C([O-])C1=NN(c2ccc(S(=O)(=O)[O-])cc2)C(=O)C1N=Nc1ccc(S(=O)(=O)[O-])cc1.[Na+].[Na+].[Na+] (centres unmarked) [Acid Yellow 23, trisodium salt of 4,5-dihydro-5-oxo-1-(4-sulfophenyl)-4-((4-sulfophenyl)azo)-1H-pyrazole-3-carboxylic acid] | 
 | O=C([O-])c1c(Cl)c(Cl)c(Cl)c(Cl)c1-c1c2c(Br)cc(=O)c(Br)c-2oc2c(Br)c(O)cc(Br)c12.O=C([O-])c1c(Cl)c(Cl)c(Cl)c(Cl)c1-c1c2c(Br)cc(=O)c(Br)c-2oc2c(Br)c(O)cc(Br)c12.[Na+].[Na+] [Acid Red 92, disodium salt of 3,4,5,6-tetrachloro-2-(1,4,5,8-tetrabromo-6-hydroxy-3-oxoxanthen-9-yl)benzoic acid] | greater than 10 g/L
 | Nc1cc(S(=O)(=O)[O-])cc2cc(S(=O)(=O)[O-])c(N=Nc3ccccc3)c(O)c12.[Na+].[Na+] [Acid Red 33, disodium salt of 5-amino-4-hydroxy-3-(phenylazo)-naphthalene-2,7-disulphonate] | 2.5 mg/mL
 | O=S(=O)([O-])c1ccc(N=Nc2c(O)ccc3ccccc23)cc1.[Na+] [Acid Orange 7, sodium salt of 4-[(2-hydroxy-1-naphthyl)azo]benzene sulphonate] | more than 7 g/L
